Experimental data published in article PMC4784888, “Activity Based High-Throughput Screening for Novel O-GlcNAc Transferase Substrates Using a Dynamic Peptide Microarray” (PLoS ONE, 2016).
Structures can show the parent of a compound that is named as a salt.

System: purified m-OGT
Assay: Km of UDP-GlcNAc in RBL-2 peptide O-GlcNAcylation on microarray
Type: biochemical, human
Conditions: fixed saturating RBL-2_410–422 peptide, purified m-OGT (0.2 μg/μL), UDP-GlcNAc 0–2 mM, Michaelis-Menten fit; read-out: Km of UDP-GlcNAc donor
Description: One step OGT purification was performed using His60 Ni Gravity Flow Columns (Clontech) according to the manufacturer’s instructions. Briefly, the nickel column was equilibrated with a buffer containing 50 mM sodium phosphate, 300 sodium chloride, 20 mM imidazole, and pH 7.4, followed by incubation with cell lysate containing His tag OGT for 1h at 4°C. After washing several times using buffer containing 50 mM sodium phosphate, 300 sodium chloride, 40 mM imidazole, and pH 7.4, the recombinant OGT was eluted using elution buffer containing 50 mM sodium phosphate, 300 mM sodium chloride, 300 mM imidazole, and pH 7.4. […]
Peptide O-GlcNAcylation was assessed using PamChip 4 microarray chips with a PamStation 12 instrument (Pamgene international, The Netherlands). […] O-GlcNAcylation of each peptide was detected by a fluorescent signal which was produced by an FITC conjugated antibody bound to the O-GlcNAc moiety on the peptide.
Image analysis was performed using BioNavigator 6 software (Pamgene international, The Netherlands). Briefly, each image was quantified by automated array grid finding and subsequent quantification of signal and local background for each individual spot. In this work, the signal median-minus-background value was used as the quantitative parameter for the O-GlcNAcylation of the peptide. […]

Km: 24 µM
Structure (SMILES): CC(=O)N[C@H]1[C@@H](OP(=O)(O)OP(=O)(O)OC[C@H]2O[C@@H](n3ccc(=O)[nH]c3=O)[C@H](O)[C@@H]2O)O[C@H](CO)[C@@H](O)[C@@H]1O [UDP-GlcNAc, Uridine 5′-diphospho-N-acetylglucosamine sodium salt]
